US20100099700A1, “HYDROGENATED PYRIDO (4,3-B) INDOLES FOR TREATING AMYOTROPHIC LATERAL SCLEROSIS (ALS)” (priority 2006, published 2010)
Entries after “also recorded” stand apart in the source; their conditions may differ. Where two headings read alike, the source gives them in different places.

Assays:
[1] = tested on: wildtype Drosophila fruit flies; experiment: Toxicity of dimebon in wildtype Drosophila (eclosion number and timing); type: in vivo; settings: daily
Experimental: Dimebon was evaluated for toxicity levels in wildtype Drosophila fruit flies as described in U.S. Provisional Patent Application No. 60/723,403. Dimebon was administered daily at doses ranging from 10 μM to 1 mM to explore its toxicity. An untreated control group was also studied in this experiment. The concentrations given were concentrations of dimebon in the food that animals drink/eat ad libitum. The food consisted of cornmeal, dextrose, yeast and agar.
About 500 wild type Drosophila eggs were collected on grape juice plates, washed with distilled water and transferred 100 per vial to grow at 25 degrees C. The adult progeny were scored after eclosing (emerging from the pupal case) beginning 10 days later. The criteria used for toxicity were the number (%) of animals that eclose and the time of the eclosing. For example, fewer animals may emerge from the pupal case if a drug is toxic or the same number of animals may eclose but more slowly than the untreated control group.

[2] = tested on: transgenic Drosophila engineered to express the mutant huntingtin protein in all their neurons; experiment: Inhibition of mutant huntingtin-induced neurodegeneration of photoreceptor neurons in Drosophila eyes (pseudopupil method); type: in vivo; settings: 7 days
Experimental: Dimebon was administered to one group of transgenic Drosophila engineered to express the mutant huntingtin protein in all their neurons as described in U.S. Provisional Patent Application No. 60/723,403. This was accomplished by cloning a foreign gene into transposable p-element DNA vectors under control of a yeast upstream activator sequence that was activated by the yeast GAL4 transcription factor. These promoter fusions were injected into fly embryos to produce transgenic animals. The foreign gene is silent until crossed to another transgenic strain of flies expressing the GAL4 gene in a tissue specific manner. The Elav>Gal4 which expresses the transgene in all neurons from birth until death was used in the experiments described. The two types of transgenic animals were crossed in order to collect enough closely matched aged controls to study. The crossed aged-matched adults (−20 per dosing group) were placed on drug containing food for 7 days. Animals were transferred to fresh food daily to minimize any effects caused by instability of the compounds. Survival was scored daily. At day 7, animals were sacrificed and the number of photoreceptor neurons surviving was counted.

[3] = tested on: G93AmSOD mice; experiment: G93AmSOD transgenic mouse treatment model (time to stage 2 / stage 1 disease); type: in vivo
Experimental: For this study, G93AmSOD mice were randomized into 4 treatment groups. Mice were weaned and raised on a normal diet for 85 days. Beginning at approximately day 80 or earlier if noted clinically, animals underwent daily assessment for hind limb weakness (time to stage 3 disease). In general, this occurred within a week of day 85. At 85 days, mice were given dimebon in the drinking water at the following concentrations: vehicle control (0 mg/kg/day), low dose (3 mg/kg/day), medium dose (10 mg/kg/day), and high dose (30 mg/kg/day). The drinking water was changed every 3-4 days, and each cage held approximately 3-5 animals.
Animals were weighed and analyzed daily to assess their strength and function. The day during which hind limb paralysis occurred was recorded (progression to stage 2 disease). Also recorded was the day at which the animals could no longer right themselves after 30 seconds (progression to stage 1 disease—a surrogate for mortality). Upon reaching stage 1 disease, animals were euthanized. […] When animals were no longer able to reliably reach the drinking water, they were given their daily mg/kg dose by intraperitoneal injection. Analyses were performed to compare the groups in terms of time to reach stage 2 and time to reach stage 1. As described further below, a Cox proportional hazards model including the effect of treatment group was fit.
(§1) A Cox proportional hazards regression model including the effect of treatment group was fit for the time to stage 2 for both sexes combined. In addition to testing the null hypothesis of no difference among the four groups, pair wise comparisons of each of the treated groups to the control group were tested. The model was fit using the SAS PHREG procedure. The same type of model was then fit to the data for each sex separately.
as §1, with “1” for “2”

[4] = tested on: primary chick neurons; experiment: 2% growth factor withdrawal (low serum) assay, MTT viability; type: cell-based, chicken
Experimental: (§2) Cells: Lohman Brown chicken embryo hybrids were used for the assay. One-day-old fertilised eggs were purchased from a local chicken breeder (Schropper Geflügel GmbH, Austria) and stored in the lab under appropriate conditions (12° C. and 80% humidity). At embryonic day 0 eggs were transferred into a breeding incubator and stored under permanent turning until embryonic day 8 at 37.8° C. and 55% humidity. Approximately five to six chicken embryos were used for isolation of neurons per experiment.
(§3) Eggs were wiped with 70% ethanol and cracked with large forceps at the blunt end. After decapitation of the embryo, the tissue covering the telencephalon was removed and hemispheres collected. After removing any loose tissue and remaining meningeal membranes, hemispheres were transferred into a dish containing nutrition medium. The tissue was dissociated mechanically by using a 1 ml pipette and by squeezing 3 times through a sterile nylon sieve with a pore size of 100 μm.
(§4) Poly-D-Lysine coated 96-well microtiter plates (Biocoat) were used to culture the cells. Culture medium (160 μl) containing 3×10^5 cells/ml nutrition medium (48 000 cells/well) were added to each well of a microtiter plate Plates were kept at 37° C., 95% humidity and 5% CO2 without change of media. Neurons begin to extend processes after a few hours in culture.
Low Serum Culture Conditions: The low serum medium used for the 2% growth factor withdrawal experiments described here includes EMEM with 1 g glucose/l and 2% FCS. The control medium includes DMEM with 4.5 g glucose/l and 5% Nu Serum. […]
Dimebon was applied to the cells on day 1 for the whole experimental period of 8 days. Viability of cells was determined with the MTT assay using a plate-reader (570 nM). […] Since this reaction is catalysed in living cells only the assay can be used for the quantification of cell viability. […] To estimate optical density a plate-reader (Anthos HT II) was used at wavelength 570 nM. […]

[5] = tested on: primary chick neurons; experiment: 2% growth factor withdrawal (low serum) assay, AM-Calcein; type: cell-based, chicken; settings: p<0.01, 8 days
Experimental: as §2, §3
as §4, with “culture. […]” for “culture.”

[6] = tested on: transgenic Drosophila engineered to express the mutant huntingtin protein in all their neurons; settings: historical positive control; cited from earlier work
[7] = 3 mg/kg/day versus vehicle, both sexes combined
[8] = 3 mg/kg/day versus vehicle, females
[9] = 3 mg/kg/day versus vehicle, males
[10] = 3 mg/kg/day, both sexes combined
[11] = 10 mg/kg/day versus vehicle, both sexes combined
[12] = 10 mg/kg/day versus vehicle, females
[13] = 10 mg/kg/day versus vehicle, males
[14] = 10 mg/kg/day, both sexes combined
[15] = 30 mg/kg/day versus vehicle, both sexes combined
[16] = 30 mg/kg/day versus vehicle, females
[17] = 30 mg/kg/day versus vehicle, males
[18] = 30 mg/kg/day, both sexes combined

## Cc1ccc2c(c1)c1c(n2CCc2ccc(C)nc2)CCN(C)C1.Cl.Cl [dimebon, 2,8-dimethyl-5-(2-(6-methyl-3-pyridyl)-ethyl)-2,3,4,5-tetrahydro-1H-pyrido(4,3-b)indol dihydrochloride]
[1]; 1 mM in food
  % of animals eclosing: decrease
  timing of emergence slowed: approximately 1 day
[1]; doses below 1 mM in food, dihydrochloride
  toxicity (% of animals that eclose and time of eclosing): no significant toxicity; also recorded: did not show significant toxicity
[2]; 10 μM in food
  rescue of photoreceptor neurons: lesser but still apparent rescue of neurons
[2]; 100 μM in food
  rescue of photoreceptor neurons compared to untreated controls: statistically significant (p=0.0014) rescue of neurons
[2]; 1 mM in food
  rescue of photoreceptor neurons: still appeared to cause neuronal rescue, but to a lesser extent
[3]; [7]
  Time to Stage 1: hazard ratio (Cox proportional hazards): 1.112
  Time to Stage 2: hazard ratio (Cox proportional hazards): 0.969
[3]; [8]
  Time to Stage 1: hazard ratio (Cox proportional hazards): 1.089
  Time to Stage 2: hazard ratio (Cox proportional hazards): 0.882
[3]; [9]
  Time to Stage 1: hazard ratio (Cox proportional hazards): 0.967
  Time to Stage 2: hazard ratio (Cox proportional hazards): 0.984
[3]; [10]
  Mean Time to Stage 1 (Expressed as a Percentage of the Mean in the Vehicle Group): 98.8%
  Mean Time to Stage 2 (Expressed as a Percentage of the Mean in the Vehicle Group): 99.8%
[3]; 3 mg/kg/day, females
  Mean Time to Stage 1 (Expressed as a Percentage of the Mean in the Vehicle Group): 97.4%
  Mean Time to Stage 2 (Expressed as a Percentage of the Mean in the Vehicle Group): 100.2%
[3]; 3 mg/kg/day, males
  Mean Time to Stage 1 (Expressed as a Percentage of the Mean in the Vehicle Group): 100.2%
  Mean Time to Stage 2 (Expressed as a Percentage of the Mean in the Vehicle Group): 99.4%
[3]; [11]
  Time to Stage 1: hazard ratio (Cox proportional hazards): 0.738
  Time to Stage 2: hazard ratio (Cox proportional hazards): 0.652
[3]; [12]
  Time to Stage 1: hazard ratio (Cox proportional hazards): 0.855
  Time to Stage 2: hazard ratio (Cox proportional hazards): 0.659
[3]; [13]
  Time to Stage 1: hazard ratio (Cox proportional hazards): 0.524
  Time to Stage 2: hazard ratio (Cox proportional hazards): 0.545
[3]; [14]
  Mean Time to Stage 1 (Expressed as a Percentage of the Mean in the Vehicle Group): 103.3%
  Mean Time to Stage 2 (Expressed as a Percentage of the Mean in the Vehicle Group): 104.9%
[3]; 10 mg/kg/day, females
  Mean Time to Stage 1 (Expressed as a Percentage of the Mean in the Vehicle Group): 102.3%
  Mean Time to Stage 2 (Expressed as a Percentage of the Mean in the Vehicle Group): 104.9%
[3]; 10 mg/kg/day, males
  Mean Time to Stage 1 (Expressed as a Percentage of the Mean in the Vehicle Group): 104.2%
  Mean Time to Stage 2 (Expressed as a Percentage of the Mean in the Vehicle Group): 104.9%
[3]; [15]
  Time to Stage 1: hazard ratio (Cox proportional hazards): 0.505
  Time to Stage 2: hazard ratio (Cox proportional hazards): 0.522
[3]; [16]
  Time to Stage 1: hazard ratio (Cox proportional hazards): 0.314
  Time to Stage 2: hazard ratio (Cox proportional hazards): 0.359
[3]; [17]
  Time to Stage 1: hazard ratio (Cox proportional hazards): 0.647
  Time to Stage 2: hazard ratio (Cox proportional hazards): 0.698
[3]; [18]
  Mean Time to Stage 1 (Expressed as a Percentage of the Mean in the Vehicle Group): 104.7%
  Mean Time to Stage 2 (Expressed as a Percentage of the Mean in the Vehicle Group): 104.8%
[3]; 30 mg/kg/day, females
  Mean Time to Stage 1 (Expressed as a Percentage of the Mean in the Vehicle Group): 107.0%
  Mean Time to Stage 2 (Expressed as a Percentage of the Mean in the Vehicle Group): 107.7%
[3]; 30 mg/kg/day, males
  Mean Time to Stage 1 (Expressed as a Percentage of the Mean in the Vehicle Group): 102.4%
  Mean Time to Stage 2 (Expressed as a Percentage of the Mean in the Vehicle Group): 101.8%
[4]; Gallus gallus, Neuron, 192 h, 6250 nM, 8 days, read-out: maximum effect in the MTT assay, above control
  Emax at 6.25 µM: ~287%
[4]; MTT, p<0.05, 8 days
  Dimebon concentrations at which statistically significant differences compared to control were achieved: ≥ 1250 nM
[4]; highest tested concentration 31250 nM
  effect in the MTT assay: less than what was achieved at a concentration of 6250 nM
[5]
  Dimebon concentrations at which statistically significant differences compared to control were achieved: ≥ 1250 nM

## C[C@@H](N)[C@H]1CC[C@H](C(=O)Nc2ccncc2)CC1 [Y-27632]
[6]
  rescue of photoreceptor neurons: strongly rescuing
